Reference: patent US9512140B2, “(Thieno[2,3-b][1,5]benzoxazepin-4-yl)piperazin-1-yl compounds as dual activity H1 inverse agonists/5-HT2A antagonists” (priority 2011, dated 2016)
pEC50, pKi: −log10 of the molar value. Where a name gives a salt, the structure may show the parent alone.

Columns and labels:
Adrenergic alpha1B = Adrenergic alpha1B (Homo sapiens, UniProt P35368); experiment: Adrenergic alpha1B binding
Text: (§1) Further, the compounds of the invention may be tested in binding assays and functional activity assays by well known methods for other physiologically important receptors such as, but not limited to, the hERO channel, other serotonin receptors (specifically 5-HT1B, 5-HT1D, receptors, lack of agonist activity at 5-HT2B receptors, 5-HT2C, 5-HT5, 5-HT6, and 5-HT7 receptors), dopaminergic receptors (specifically D1, D2, and D3), GABAA receptors, adrenergic receptors and monoamine transporters.

Plasma clearance, dog = type: in vivo; settings: male, Beagle, 1 mg/kg, intravenous, 1 mL/kg of 1.0 mg/mL
Protocol: Male Beagle dogs (body weight range 10-12 kg) are obtained from Marshall Bioresources, USA. Test compound is administered intravenously in solution (1 mL/kg) in 20% Captisol® in 22.5 mM phosphate buffer, pH 2, at a final drug concentration of 1.0 mg/mL (free base equivalents). Blood samples are obtained from the jugular vein over 24 hr. Samples of plasma are obtained by centrifugation and stored frozen (−20° C.) prior to analysis. Frozen plasma samples are thawed to room temperature for bioanalysis of concentrations of test compound. A related internal standard compound in acetonitrile/methanol (1:1, v/v) is added to all samples of plasma (1:1, v/v). The samples are centrifuged to remove precipitated protein prior to analysis. The supernatants are analysed by injection and rapid gradient elution on a Javelin Betasil C18 column (20×2.1 mm cartridge, Mobile phase A: Water/1 M NH4HCO3, 2000:10 v/v, Mobile Phase B: MeOH/1 M NH4HCO3, 2000:10 v/v). The eluted analytes are detected by LC-MS-MS analysis using a Sciex API 4000 triple quadrupole mass spectrometer. Concentrations of compound are determined from standards prepared and analysed under identical conditions. Clearance is calculated using non-compartmental analysis in Watson 7.4, Thermo Fisher Scientific, Inc.

5-HT2A Receptor = target: T1, 5-HT2A Receptor (Rattus norvegicus, UniProt P14842); experiment: 5-HT2A receptor occupancy (MDL 100907 tracer); type: in vivo; settings: oral gavage, RO 1 hr. after dosing
T1 construct: from tissue; host or cells: rat brain (frontal cortex against cerebellum), in vivo
T1 sequence (P14842 whole entry): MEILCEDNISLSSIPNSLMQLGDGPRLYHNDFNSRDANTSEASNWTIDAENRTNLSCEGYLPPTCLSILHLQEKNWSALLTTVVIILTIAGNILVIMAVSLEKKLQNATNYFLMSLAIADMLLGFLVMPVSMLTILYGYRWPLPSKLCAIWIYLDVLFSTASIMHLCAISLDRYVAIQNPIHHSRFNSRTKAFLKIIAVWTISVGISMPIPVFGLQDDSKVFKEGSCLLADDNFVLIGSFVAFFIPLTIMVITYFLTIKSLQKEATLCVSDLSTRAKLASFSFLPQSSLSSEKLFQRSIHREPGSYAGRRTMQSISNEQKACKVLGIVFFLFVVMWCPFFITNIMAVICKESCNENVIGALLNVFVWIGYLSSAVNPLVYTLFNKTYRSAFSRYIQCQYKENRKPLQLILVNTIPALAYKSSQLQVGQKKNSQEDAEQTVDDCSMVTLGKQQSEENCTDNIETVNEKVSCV
Protocol: Briefly, male Sprague-Dawley rats (Harlan Sprague-Dawley, Indianapolis, Ind.) weighing approximately 230-280 grams are given ad lib access to food and water until the beginning of the 3-hr. experimental protocol. 1 mg/kg ketanserin (non-selective 5-HT2A antagonist) is used as a positive control to establish assay validity. Test compounds or control are administered by oral gavage in a vehicle comprised of 20% hydroxypropyl beta-cyclodextrin. MDL 100907 ((R)-(+)-α-(2,3-Dimethoxyphenyl)-1-[2-(4-fluorophenyl)ethyl]-4-piperidinemethanol), a selective 5-HT2A antagonist, is used as a tracer. […] It is at the time of tracer administration that RO is considered to be measured. […] The level of MDL 100907 tracer is measured in each cortical and cerebellar sample. RO is calculated using the well-established ratio method which employs a region of high receptor density representative of total binding (frontal cortex) normalized by an area without or with very low levels of receptor (cerebellum). […]
Cortex and cerebellar samples are weighed and placed in conical centrifuge tubes on ice. […] Standards are prepared by adding known quantities of analyte to brain tissue samples from non-treated rats and processing as described above. […]

5-HT2B = 5-HT2B (Homo sapiens, UniProt P41595); experiment: 5-HT2B agonist functional activity; type: biochemical
5-HT2B, sequence (P41595 whole entry, species assumed): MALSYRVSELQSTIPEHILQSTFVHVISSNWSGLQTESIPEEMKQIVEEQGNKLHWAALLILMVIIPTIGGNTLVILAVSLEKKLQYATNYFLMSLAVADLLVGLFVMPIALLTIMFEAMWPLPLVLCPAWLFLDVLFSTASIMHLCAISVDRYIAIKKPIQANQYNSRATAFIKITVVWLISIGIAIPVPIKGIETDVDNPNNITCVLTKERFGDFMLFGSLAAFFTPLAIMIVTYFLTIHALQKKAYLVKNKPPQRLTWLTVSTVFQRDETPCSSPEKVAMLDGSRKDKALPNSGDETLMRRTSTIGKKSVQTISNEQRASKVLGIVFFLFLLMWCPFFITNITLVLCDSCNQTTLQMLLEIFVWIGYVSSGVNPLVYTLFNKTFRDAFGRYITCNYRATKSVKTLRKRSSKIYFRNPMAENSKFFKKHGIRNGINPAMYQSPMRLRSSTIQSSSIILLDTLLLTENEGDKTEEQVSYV
Text: as §1

5-HT1D = 5-HT1D (Homo sapiens, UniProt P28221); experiment: 5-HT1D binding
5-HT1D, sequence (P28221 whole entry, species assumed): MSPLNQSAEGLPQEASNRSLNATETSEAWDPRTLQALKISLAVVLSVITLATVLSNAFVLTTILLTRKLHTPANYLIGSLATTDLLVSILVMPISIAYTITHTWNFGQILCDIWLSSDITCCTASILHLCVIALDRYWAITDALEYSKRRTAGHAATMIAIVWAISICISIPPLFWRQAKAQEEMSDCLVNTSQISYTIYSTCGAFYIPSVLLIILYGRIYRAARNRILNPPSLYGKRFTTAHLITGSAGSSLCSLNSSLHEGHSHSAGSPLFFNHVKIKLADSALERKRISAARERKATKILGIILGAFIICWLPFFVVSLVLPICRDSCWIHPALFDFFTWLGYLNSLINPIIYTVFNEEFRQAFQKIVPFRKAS
Text: as §1

Adrenergic alpha1B, sequence (P35368 whole entry): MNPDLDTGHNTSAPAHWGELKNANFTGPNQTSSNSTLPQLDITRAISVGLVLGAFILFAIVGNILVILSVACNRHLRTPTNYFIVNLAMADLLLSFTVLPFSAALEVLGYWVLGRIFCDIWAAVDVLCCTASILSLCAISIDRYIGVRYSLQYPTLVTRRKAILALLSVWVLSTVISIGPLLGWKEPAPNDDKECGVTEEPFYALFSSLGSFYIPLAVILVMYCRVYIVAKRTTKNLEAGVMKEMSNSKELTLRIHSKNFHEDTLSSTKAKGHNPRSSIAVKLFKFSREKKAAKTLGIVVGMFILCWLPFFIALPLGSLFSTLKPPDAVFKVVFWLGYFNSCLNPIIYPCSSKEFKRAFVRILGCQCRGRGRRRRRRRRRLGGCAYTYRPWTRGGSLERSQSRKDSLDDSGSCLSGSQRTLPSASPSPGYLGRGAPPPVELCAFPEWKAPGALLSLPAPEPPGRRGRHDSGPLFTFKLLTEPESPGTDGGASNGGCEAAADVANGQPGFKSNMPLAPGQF

With `Cc1ccc2c(c1)Oc1sc(C)cc1C(N1CCN(CC(C)(C)C(=O)O)CC1)=N2` [Example 2, 3-[4-(2,8-Dimethylthieno[2,3-b][1,5]benzoxazepin-4-yl)piperazin-1-yl]-2,2-dimethyl-propanoic acid dihydrochloride] as the molecule, how does the pKi (Adrenergic alpha1B) read?
Its pKi is under 4.79.

And the clearance (Plasma clearance, dog)?
Its clearance is 2.8 mL/min/kg.

And the ED50 (5-HT2A Receptor)?
Its ED50 is 0.09 mg/kg.

What about the pEC50 (5-HT2B) of the same molecule?
Its pEC50 is under 5.00.

What about the pKi (5-HT1D) of the same molecule?
The pKi was under 5.40.
